The results in this text go back to patent US20120136011A1, “COMPOUNDS AND METHODS FOR SKIN REPAIR” (ALLERGAN, INC., priority 2010, published 2012).

Data set [1] concerns Sprague-Dawley rats. Description: Incisional skin wound model, 14 day pilot study, topical treatment. Format: in vivo. The procedure: (§1) Incisional Skin Wound Model and Assessment. Sprague-Dawley rats at 180-200 gram were anesthetized with isoflourane. After shaving, a 2-cm long incision was made, reaching the deep fascia on the back skin of rats under sterile conditions. The wounds were immediately closed with 4-0 sutures. A 14 day pilot study was carried out. The animals were topically treated with vehicle or Compound 1 at 0.004% twice daily. The vehicle contained ethanol 30%, propylene glycol 12%, dipropylene glycol 5%, benzyl alcohol 5%, glycerol 3% and normal saline 45%. The wound was photographed daily; biopsy was performed at 2, 3, 7 and 14 days post-surgery for histopathology and molecular biology analysis.
(§2) The wound tissue was biopsied for histopathology on day 3, 14 and 70. To observe the skin wound, paraffin-embedded wound sections were made. Regular H&E staining was carried out in comparison with Masson trichrome and/or Picosirus red to visualize the collagen fibers. To monitor myofibroblasts in skin wound, the sections were immunohistochemically stained to identify alpha-smooth muscle actin. To assess wound appearance, all the scar photos were mixed together by the end of each study. The scar severity was scored on a scale of 0 to 10, with 0 being invisible, 1 the minimal and 10 the worst. Each scar was divided into 4 regions, separated by suture sites; each quarter was scored independently; the mean of the 4 part scores was recorded as the gross score of each wound.

In data set [2] the test system is Sprague-Dawley rats. Put plainly: Incisional skin wound study comparing Compound 1 and TGF-β3 (intradermal injection, then topical). The conditions noted are these: for number of neutrophils counted in three sections of H&E stained tissues: 3 days post-surgery, n=5, vehicle 60.6±30, not statistically significant; for macroscopic surface appearance of wound sites / abnormal regions (dense, red, fine parallel fibers) on Picrosirius red stained sections: 70 days post-surgery; for abnormal regions (dense, red, fine parallel fibers) on Picrosirius red stained sections: versus vehicle; for widths of the abnormal structured dermis regions, Masson trichrome / gap width in-between the normal fibrils, Picrosirius red / collagen fibril type at wound sites, Picrosirius red under polarized light: day 14; for widths of the abnormal structured dermis regions, Masson trichrome / size of residual scar regions, Masson trichrome: versus vehicle treated group, p<0.01-0.05; for gap width in-between the normal fibrils, Picrosirius red: versus vehicle-treated group, p<0.05; for collagen fibril type at wound sites, Picrosirius red under polarized light: yellow large bundles versus green type III collagen; for size of residual scar regions, Masson trichrome: day 70. It is filed as in vivo. The procedure: as §1
A similar skin wound study was also performed comparing the effects of Compound 1 and TGF-β3. In this study, intradermal injections of Compound 1 at 0.004%, TGF-β3 at 100 ng/200 μl or vehicle were given right before closing the wounds. Afterward, TGF-β3 was injected two more times, on day 1 and 2, and Compound 1 and vehicle were topically applied twice a day for the duration of the study. The vehicle was PBS with 0.1% BSA and 4 mM HCl in a total volume of 200 μl for injection. Skin wounds were imaged on day 3, 7, 14, and 70.
as §2

The subject of data set [3] is human fetal skin fibroblasts (CRL-7129). Description: Collagen type I production in cultured fetal skin fibroblasts (Western blot). It is filed as cell-based. A general note: Immunoblotting shows a protein as a band on a membrane.
In data set [4] the test system is human adult skin fibroblasts (CRL-7346). Put plainly: Collagen type I production in cultured adult skin fibroblasts (Western blot). Format: cell-based.
[5] abbreviates: day 14, Masson Trichrome, versus vehicle.
Setting [6] is: vehicle 100%, 48 hours treatment.

As for `CC1(C)C(=O)[C@H](C/C=C\CCCC(=O)O)[C@@H](/C=C/[C@H](O)CCc2sc3ccccc3c2Cl)[C@@H]1O` [Compound 1], the “epidermal layer thickness and structure at wound site” value with Sprague-Dawley rats [1] (7 days post-skin incision, 0.004% topical twice daily) is given as “thickness close to the nearby normal epidermis”. Moreover, the “epidermal thickness of vehicle-treated skin relative to Compound 1 treated epidermis” value with Sprague-Dawley rats [1] (7 days post-skin incision, vehicle had epidermal hyperplasia) came to 3 times. In addition, the “gross skin scar appearance” value in the data set with Sprague-Dawley rats [1] (14 days post-surgery, versus vehicle-treated animals) is “smaller and softer skin scar”. Further, the “overall size of epidermal defects, vehicle-treated versus Compound 1 treated wounds” value in the data set with Sprague-Dawley rats [1] (day 3 post-surgery, 0.004% topical twice daily) is “two times larger for vehicle-treated wounds”. Further, the “skin wound samples showing closed epidermis filled with keratinocytes” value in the data set on Sprague-Dawley rats [1] (day 3 post-surgery, 0.004% topical twice daily, vehicle 33%) stood at 80%. The “number of myofibroblasts (α-SMA-positive cells)” value in the data set on Sprague-Dawley rats [1] (day 3 samples, vehicle control 38±6.15/3 sections) is given as 25.8±7.45 /3 sections. Besides, in the data set with Sprague-Dawley rats [1] (setting [5]), the “scar width (abnormal fiber belt) in the middle and bottom parts of scars” value was “significantly reduced”; the “scar width at the superficial region” value is recorded as “only a tendency to decrease”. Moreover, the “neutrophil (polymorphonuclear cell) infiltration at wound sites” value in the data set with Sprague-Dawley rats [1] (days 2 and 3 post-surgery, versus vehicle) was “significantly reduced”. Besides, in the data set on Sprague-Dawley rats [2], the “number of neutrophils counted in three sections of H&E stained tissues” value was found to be 31.4±8; the “macroscopic surface appearance of wound sites” value is “wound sites were not even detectable”; the “abnormal regions (dense, red, fine parallel fibers) on Picrosirius red stained sections” value is on record as “largely absent”; the “widths of the abnormal structured dermis regions, Masson trichrome” value is given as “significantly smaller”. Also, in the data set with Sprague-Dawley rats [2], the “gap width in-between the normal fibrils, Picrosirius red” value is given as “significantly narrower”; the “collagen fibril type at wound sites, Picrosirius red under polarized light” value is on record as “large yellow-stained collagen bundles almost crossing over the entire wound sites”; the “size of residual scar regions, Masson trichrome” value is recorded as “remarkably smaller”. Besides, the “collagen type-1 production (in words)” value in data set [3] was “upregulated”. For the same compound, the “collagen type-1 production relative to vehicle” value in data set [3] (setting [6]) turned out to be 200%. Further, the “collagen type-1 production (in words)” value in data set [4] is on record as “upregulated”. Further, the “collagen type-1 production relative to vehicle” value in data set [4] (setting [6]) turned out to be 128%.

As for “TGF-β3: a leading treatment for wounds, reportedly reducing skin scar in both animals and human”, in the data set on Sprague-Dawley rats [2], the “number of neutrophils counted in three sections of H&E stained tissues” value came out at 53.8±17; the “macroscopic surface appearance of wound sites” value was “still showed traces of wounds”; the “abnormal regions (dense, red, fine parallel fibers) on Picrosirius red stained sections” value is on record as “largely absent”; the “widths of the abnormal structured dermis regions, Masson trichrome” value is reported as “significantly smaller”. For the same compound, in the data set with Sprague-Dawley rats [2], the “gap width in-between the normal fibrils, Picrosirius red” value was “significantly narrower”; the “collagen fibril type at wound sites, Picrosirius red under polarized light” value is listed as “some green fibers at the bottom of the wounds”; the “size of residual scar regions, Masson trichrome” value is recorded as “remarkably smaller”.
